Assay [1] has as its system E. coli BL21(DE3) strain containing the plasmid pTac-5′UTR-Sgr_rppA. The assay is described as follows: RppA malonyl-CoA biosensor characterization with cerulenin in E. coli. It is filed as cell-based. Here is the method: After construction of a malonyl-CoA biosensor based on S. griseus RppA, the following experiment was performed in order to examine the applicability of the biosensor. First, the signal of the RppA malonyl-CoA biosensor was defined as the absorbance of culture supernatant at 340 nm (FIG. 3D). Generally, for characterizing a biosensor, different concentrations of a target compound has to be added to examine whether an increased signal occur. However, because malonyl-CoA is a substance that cannot pass through the cell membrane, adding malonyl-CoA to medium is meaningless. Thus, cerulenin (Sigma-aldrich, USA) known to block fatty acid biosynthetic pathways was used to indirectly characterize the biosensor (Omura S (1976), Bacteriol Rev 40:681-697.). Cerulenin blocks fatty acid biosynthetic pathways, and thus leads to the accumulation of malonyl-CoA, a fatty acid precursor. Thus, the concentration of malonyl-CoA in E. coli according to addition of different concentrations of cerulenin as described in previous studies was measured (Xu P, Li L, Zhang F, Stephanopoulos G, Koffas M (2014), Proc Natl Acad Sci USA 111:11299-11304). […] The inoculated cells were cultured in an incubator at 30° C. and 220 rpm for 16 hours, and then the growth (OD600) of the cells and the absorbance at 340 nm of the culture supernatant were measured. […]

Assay [2] concerns E. coli BL21(DE3) strains expressing AaOKS, AaPKS4 and AaPKS5. The assay can be described thus: AaOKS, AaPKS4 and AaPKS5 malonyl-CoA biosensor experiments using cerulenin. It is filed as cell-based. Particulars: different concentrations of cerulenin added to the medium.
Assay [3] concerns P. putida pBBR1-rppA strain. The assay can be described thus: RppA malonyl-CoA biosensor characterization with cerulenin in P. putida. Format: cell-based, Pseudomonas putida. The conditions noted are these: MR-MOPS medium, increasing cerulenin concentration.
Assay [4] has as its system C. glutamicum pCES-His-rppA strain. The assay is described as follows: RppA malonyl-CoA biosensor characterization with cerulenin in C. glutamicum. Format: cell-based, Corynebacterium glutamicum. The conditions noted are these: increasing cerulenin concentration.

With `C/C=C/C/C=C/CCC(=O)[C@H]1O[C@H]1C(N)=O` [cerulenin], the “normalized signal (absorbance of culture supernatant at 340 nm)” value in assay [1] (cerulenin 0, 5, 10, 15, 20, 25, 50, and 100 μM, 16 hours, 30° C., compared to the strain that does not express RppA) is given as “obviously increased as the concentration of cerulenin increased”. The “normalized production of flaviolin” value in assay [1] (increasing cerulenin concentration, also observed by the naked eyes) is recorded as “increased with increasing cerulenin concentration”; in assay [3] it was “increased as the cerulenin concentration in the corresponding strain increased”; in assay [4], “increased as the cerulenin concentration in the corresponding strain increased”. In addition, the “signal (absorbance at 300 nm of the culture supernatant)” value in assay [2] is reported as “signal generated from each strain increased as the intracellular malonyl-CoA concentration increased”. The normalized signal result in assay [3] and in assay [4] was “increased as the cerulenin concentration in the corresponding strain increased” in each case.
